# Assay results taken from ChEMBL document CHEMBL3603744, “Structure activity relationship of C-2 ether substituted 1,5-naphthyridine analogs of oxabicyclooctane-linked novel bacterial topoisomerase inhibitors as broad-spectrum antibacterial agents (Part-5)” (Bioorg Med Chem Lett, 2015).
# Assays:
# Staphylococcus aureus [1] = assay: Antimicrobial activity against Staphylococcus aureus infected in orally dosed mouse bacteremia survival model; assay type: functional; details: po
# Staphylococcus aureus [2] = assay: Antimicrobial activity against Staphylococcus aureus infected in iv dosed mouse bacteremia survival model; assay type: functional
# Staphylococcus aureus [3] = assay: Antimicrobial activity against quinolone-sensitive Staphylococcus aureus MS5935
# Staphylococcus aureus [4] = assay: Resistance index, ratio of MIC for quinolone-resistant Staphylococcus aureus MS5935 to MIC for quinolone-[…]; assay type: functional
# Staphylococcus aureus [5] = assay: Antimicrobial activity against quinolone-resistant Staphylococcus aureus MS5935; assay type: functional
# [6] = Half life in Sprague-Dawley rat at 2 mg/kg, iv or 5 mg/kg, po; assay type: ADME, organism-based; details: in vivo
# [7] = Volume of distribution at steady state in Sprague-Dawley rat at 2 mg/kg, iv or 5 mg/kg, po; assay type: ADME, organism-based; details: in vivo, read-out: Vdss
# [8] = Half life in C57BL/6 mouse at 2 mg/kg, iv or 5 mg/kg, po; assay type: ADME, organism-based; details: in vivo
# [9] = Oral bioavailability in C57BL/6 mouse at 5 mg/kg; assay type: ADME, organism-based; details: in vivo
# Mus musculus = assay: Dose normalized AUC in C57BL/6 mouse at 2 mg/kg, iv or 5 mg/kg, po; assay type: ADME, organism-based; details: in vivo
# [10] = Plasma clearance in Sprague-Dawley rat at 2 mg/kg, iv or 5 mg/kg, po; assay type: ADME, organism-based
# [11] = Volume of distribution at steady state in C57BL/6 mouse at 2 mg/kg, iv or 5 mg/kg, po; assay type: ADME, organism-based; details: in vivo, read-out: Vdss
# Rattus norvegicus = assay: Dose normalized AUC in Sprague-Dawley rat at 2 mg/kg, iv or 5 mg/kg, po; assay type: ADME, organism-based; details: in vivo
# [12] = Oral bioavailability in Sprague-Dawley rat at 5 mg/kg; assay type: ADME, organism-based; details: in vivo
# [13] = Plasma clearance in C57BL/6 mouse at 2 mg/kg, iv or 5 mg/kg, po; assay type: ADME, organism-based
smiles,measurement,setting,value
Cl.O=C1COc2ccc(CNC34CCC(CCc5c(F)cnc6ccc(OCCO)nc56)(CC3)OC4)nc2N1,ED50,Staphylococcus aureus [1],> 50 mg/kg
same,ED50,Staphylococcus aureus [2],13 mg/kg
COc1ccc2ncc(F)c(C[C@H](O)C34CCC(NCc5ccc6c(n5)NC(=O)CO6)(CC3)CO4)c2n1.Cl,ED50,Staphylococcus aureus [1],2.2 mg/kg
same,ED50,Staphylococcus aureus [2],2.5 mg/kg
C[C@H]1COc2c(N3CCN(C)CC3)c(F)cc3c(=O)c(C(=O)O)cn1c23.C[C@H]1COc2c(N3CCN(C)CC3)c(F)cc3c(=O)c(C(=O)O)cn1c23.O [LEVOFLOXACIN],MIC,Staphylococcus aureus [3],0.25 µg/mL
same,Ratio,Staphylococcus aureus [4],>64
same,MIC,Staphylococcus aureus [5],> 16 µg/mL
Cl.O=C1COc2ccc(CNC34CCC([C@@H](O)Cc5c(F)cnc6ccc(OCCCO)nc56)(CC3)OC4)nc2N1,ED50,Staphylococcus aureus [1],> 50 mg/kg
same,ED50,Staphylococcus aureus [2],5.5 mg/kg
Cl.O=C1COc2ccc(CNC34CCC(CCc5c(F)cnc6ccc(OCCCO)nc56)(CC3)OC4)nc2N1,ED50,Staphylococcus aureus [1],15 mg/kg
same,half-life,[6],0.58 h
same,Vd,[7],0.84 L/kg
same,half-life,[8],1.5 h
same,bioavailability,[9],16%
same,AUC/dose,Mus musculus,1.6 µM·h/mg/kg
same,ED50,Staphylococcus aureus [2],5.9 mg/kg
same,clearance,[10],33.2 mL/min/kg
same,Vd,[11],1.46 L/kg
same,AUC/dose,Rattus norvegicus,1.9 µM·h/mg/kg
same,bioavailability,[12],49%
same,clearance,[13],38.7 mL/min/kg
